From PMC3299860 (Antiviral Research, 2012)
Entries after “also recorded” stand apart in the source; their conditions may differ.

Assays:
[1] = system: A/New Jersey/15/2007 (H1N1); assay type: biochemical, human influenza virus
A/Fukui/20/2004 (H3N2) = assay type: biochemical, human influenza virus

CC(=O)N[C@H]1[C@H]([C@H](O)[C@H](O)CO)OC(C(=O)O)=C[C@@H]1N=C(N)N [zanamivir, 4-guanidino-Neu5Ac2en]
susceptibility to NAI (in words) [1]: zanamivir-sensitive; also recorded: susceptible
susceptibility to NAI (in words) (A/Fukui/20/2004 (H3N2)): susceptible
